From US20040127518A1, “Modulation of anxiety through blockade of anandamide hydrolysis” (priority 2002, published 2004)
Where two headings read alike, the source gives them in different places.

Legend:
FAAH = target: T1, FAAH (Rattus norvegicus, UniProt P97612); assay: biochemical; format: biochemical; set-up: from tissue; host or cells: rat brain (membrane fraction of homogenate; Wistar rats)
T1 sequence (P97612 1-579): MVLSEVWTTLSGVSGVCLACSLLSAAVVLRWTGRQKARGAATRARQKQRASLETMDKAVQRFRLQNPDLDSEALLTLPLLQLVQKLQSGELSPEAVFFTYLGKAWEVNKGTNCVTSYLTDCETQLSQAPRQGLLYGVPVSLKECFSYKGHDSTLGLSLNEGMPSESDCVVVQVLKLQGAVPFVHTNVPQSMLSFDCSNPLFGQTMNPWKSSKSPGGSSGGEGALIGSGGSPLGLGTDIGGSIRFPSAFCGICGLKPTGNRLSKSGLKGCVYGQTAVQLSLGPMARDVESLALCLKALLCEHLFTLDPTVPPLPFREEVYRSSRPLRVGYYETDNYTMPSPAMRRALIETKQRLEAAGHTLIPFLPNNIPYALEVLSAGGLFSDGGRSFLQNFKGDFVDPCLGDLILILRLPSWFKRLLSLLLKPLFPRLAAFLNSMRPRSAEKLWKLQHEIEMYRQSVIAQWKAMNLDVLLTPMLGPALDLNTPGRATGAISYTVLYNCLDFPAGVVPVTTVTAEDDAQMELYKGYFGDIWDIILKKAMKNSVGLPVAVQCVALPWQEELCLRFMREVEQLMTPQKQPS

[1] = target: electric eel acetylcholinesterase (Electrophorus electricus, UniProt O42275); assay: biochemical
Chain of electric eel acetylcholinesterase (O42275 whole entry): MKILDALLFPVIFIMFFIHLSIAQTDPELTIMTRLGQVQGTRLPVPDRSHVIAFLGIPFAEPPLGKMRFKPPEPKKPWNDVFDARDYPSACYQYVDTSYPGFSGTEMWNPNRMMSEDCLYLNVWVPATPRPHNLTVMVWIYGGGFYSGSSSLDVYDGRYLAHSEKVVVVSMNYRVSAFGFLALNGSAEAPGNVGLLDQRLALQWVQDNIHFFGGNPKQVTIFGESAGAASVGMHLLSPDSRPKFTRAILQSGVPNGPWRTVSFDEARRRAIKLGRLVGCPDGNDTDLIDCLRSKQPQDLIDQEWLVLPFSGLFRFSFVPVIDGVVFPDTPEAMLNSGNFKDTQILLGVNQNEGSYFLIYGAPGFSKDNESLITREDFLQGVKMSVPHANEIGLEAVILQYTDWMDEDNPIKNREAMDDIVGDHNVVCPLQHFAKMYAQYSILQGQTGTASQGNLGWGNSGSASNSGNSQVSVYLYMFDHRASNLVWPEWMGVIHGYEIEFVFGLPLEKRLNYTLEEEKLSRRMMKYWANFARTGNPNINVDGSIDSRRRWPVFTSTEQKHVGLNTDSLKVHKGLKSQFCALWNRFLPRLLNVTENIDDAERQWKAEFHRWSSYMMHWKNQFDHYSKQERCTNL
Description: We prepared cell fractions from rat brain homogenates, and assayed membrane FAAH activity and cytosol MGL activity using anandamide [ethanolamine-3H] (American Radiolabeled Chemicals, ARC (St. Louis Mo.), 60 Ci/mmol) and 2-mono-oleoyl-glycerol-[glycerol-1,2,3^−3H] (ARC, St. Louis Mo., 20 Ci/mmol), respectively, as substrates (Dinh, T. Proc. Natl. Acad. Sci. U.S.A. (2002)). We conducted [^3H]anandamide transport assays in human astrocytoma cells (Piomelli, D. et al., Proc. Natl. Acad. Sci. U.S.A., 96, 5802-5807 (1999)); CB1 and CB2 binding assays in rat cerebellar membranes and CB2-overexpressing Chinese hamster ovary cells (Receptor Biology-Perkin Elmer, Wellesley, Mass.), respectively, using [^3H]WIN-55212-2 (NEN-Dupont, Boston, Mass., 40-60 Ci/mmol) as a ligand (Devane, W. A. et al. Science, 258, 1946-1949 (1992)); cholinesterase assays with a commercial kit (Sigma, St. Louis, Mo.), using purified enzymes (electric eel acetylcholinesterase type V-S and horse serum cholinesterase; both from Sigma, St. Louis, Mo.) and following manufacturer's instructions.

[2] = Table 4, FAAH IC50, read-out: Inhibition of Amidohydrolase IC50
[3] = Table 5, rat brain membranes, [3H]anandamide, read-out: IC50 (nM) ± S.E.M.
[4] = Table 6, meta-substituted derivatives, read-out: pIC50 obsd (converted)
[5] = Inhibition of Amidohydrolase IC50(μM)
[6] = Table 3, read-out: Amidohydrolase IC50

Compound `O=C(NC1CCCCC1)Oc1ccc([N+](=O)[O-])c(-c2ccccc2)c1` [PL#58] has an IC50 (FAAH; [2]) of over 30000 nM.
`O=C(NC1CCCCC1)Oc1cccc(-c2cccc(Oc3ccccc3)c2)c1` [Compound 3m] was tested, and the IC50 (FAAH; [3]) was 420 ± 86 nM and the IC50 (FAAH; [4]) was 417 nM.
`Cc1ccc(-c2cccc(OC(=O)NC3CCCCC3)c2)cc1` [PL#37] gave an IC50 (FAAH; [2]) of 230 nM.
For `Cc1cccc(-c2cccc(OC(=O)NC3CCCCC3)c2)c1` [Compound 3h], the IC50 (FAAH; [3]) was 61.7 ± 19 nM, the IC50 (FAAH; [4]) was 61.7 nM and the “inhibition of FAAH activity (in words)” value (FAAH; rat brain membranes) was “as potent as the parent compound”.
In the case of `O=C(NC1CCCCC1)Oc1cccc(-c2cccc(-c3ccccc3)c2)c1` [#34], the IC50 (FAAH; [2]) is reported as 560 nM.
Work on `O=C(NC1CCCCC1)Oc1cccc(-c2cccc(CO)c2)c1` [Compound 3v] yielded an IC50 (FAAH; [3]) of 8.67 ± 0.9 nM and an IC50 (FAAH; [4]) of 8.71 nM.
Compound `Nc1ccc(-c2ccccc2)cc1OC(=O)NC1CCCCC1` [PL#61] has an IC50 (FAAH; [2]) of over 30000 nM.
`O=C(NC1CCCCC1)Oc1cccc(-c2cccc(F)c2)c1` [PL#47] gave an IC50 (FAAH; [2]) of 92 nM.
Compound `Nc1cccc(-c2cccc(OC(=O)NC3CCCCC3)c2)c1` [PL#45] has an IC50 (FAAH; [5]) of 60 nM.
For `CCCc1cccc(-c2cccc(OC(=O)NC3CCCCC3)c2)c1` [PL#62], the IC50 (FAAH; [5]) was 80 nM.
Work on `O=C(NC1CCCCC1)Oc1cccc(-c2ccc(F)cc2)c1` [PL#41] yielded an IC50 (FAAH; [2]) of 90 nM.
For `O=C(NC1CCCCC1)Oc1cccc(-c2cccc(C(F)(F)F)c2)c1` [Compound 3g], the IC50 (FAAH; IC50 (nM) ± S.E.M.) was 146 ± 16 nM and the IC50 (FAAH; pIC50 obsd) was 145 nM.
Work on `O=C(Nc1ccc(F)cc1)Oc1ccc(OCc2ccccc2)cc1` [PL#8, 4-(benzyloxy) phenyl N-(4-fluorophenyl)carbamate] yielded an IC50 [1] of over 30000 nM, an IC50 (FAAH; [6]) of over 30000 nM and an IC50 (FAAH; [2]) of over 30000 nM.
In the case of `O=C(NC1CCCCC1)Oc1cccc(-c2cccc(CCO)c2)c1` [Compound 3w], the IC50 (FAAH; [3]) is reported as 18.7 ± 4.5 nM and the IC50 (FAAH; [4]) is reported as 18.6 nM.
For `NCc1cccc(-c2cccc(OC(=O)NC3CCCCC3)c2)c1` [Compound 3z], the IC50 (FAAH; IC50 (nM) ± S.E.M.) was 21200 nM.
`O=C(NC1CCCCC1)Oc1cccc(-c2cccc(-c3ccccc3)c2)c1` [Compound 3n] gave an IC50 (FAAH; [3]) of 565 ± 42 nM and an IC50 (FAAH; [4]) of 562 nM.
`CCCCCc1cccc(OC(=O)NC2CCCCC2)c1` [#33] showed an IC50 (FAAH; [2]) of 220 nM.
In the case of `O=C(NC1CCCCC1)Oc1cccc(-c2ccc(C(F)(F)F)cc2)c1` [PL#38], the IC50 (FAAH; [5]) is reported as 1600 nM.
In the case of `O=C(NC1CCCCC1)Oc1ccc2cccc(Br)c2c1` [PL#27], the IC50 (FAAH; [2]) is reported as 170 nM.
For `O=C(NC1CCCCC1)Oc1cccc(-c2ccc(F)cc2)c1` [Compound 3e], the IC50 (FAAH; [3]) was 65 ± 14 nM and the “inhibition of FAAH activity (in words)” value (FAAH; rat brain membranes) was “comparable IC50 value”.
Work on `Nc1ccc(-c2cccc(OC(=O)NC3CCCCC3)c2)cc1` [PL#39] yielded an IC50 (FAAH; [5]) of 510 nM.
In the case of `CC1=CC(C)(C)N(C(=O)NC2CCCCC2)c2cc(C)c(C)cc21` [PL#19], the IC50 (FAAH; [2]) is reported as over 30000 nM.
`O=C(NC1CCCCC1)Oc1ccc(-c2ccccc2)cc1` [PL#5, 4-biphenyl N-cyclohexylcarbamate] showed an IC50 [1] of over 30000 nM, an IC50 (FAAH; read-out: Amidohydrolase IC50) of 2300 nM and an IC50 (FAAH; read-out: Inhibition of Amidohydrolase IC50) of 2300 nM.
Work on `O=C(Nc1cccc2ccccc12)NC1CCCCC1` [PL#20] yielded an IC50 (FAAH; [2]) of over 30000 nM.
Work on `O=C(NC1CCCCC1)Oc1ccc(/C=C\c2ccccc2)cc1` [PL#25] yielded an IC50 (FAAH; [5]) of 240 nM.
Work on `CC(=O)c1cccc(-c2cccc(OC(=O)NC3CCCCC3)c2)c1` [Compound 3s] yielded an IC50 (FAAH; [3]) of 9.1 ± 0.5 nM and an IC50 (FAAH; [4]) of 9.12 nM.
Compound `O=C(NC1CCCCC1)Sc1ccc2ccccc2c1` [PL#52] has an IC50 (FAAH; [5]) of 15000 nM.
In the case of `CCCCOC(=O)Oc1ccc(C(=O)Oc2ccc(OC)cc2)cc1` [PL#17, O-butyl 4-(4-methoxyphenoxycarbonyl)-phenyl carbonate], the IC50 [1] is reported as over 30000 nM, the IC50 (FAAH; [6]) is reported as 9100 nM and the IC50 (FAAH; [2]) is reported as 9100 nM.
Compound `Cc1ccc(OC(=O)NC2CCCCC2)cc1` [PL#6, p-toly-N-cyclohexy carbamate] has an IC50 [1] of over 30000 nM, an IC50 (FAAH; [6]) of 5400 nM and an IC50 (FAAH; [2]) of 5400 nM.
With `NC(=O)c1ccc(OC(=O)NC2CCCCC2)cc1-c1ccccc1` [PL#49] the IC50 (FAAH; [2]) was 200 nM.
With `Nc1ccc(OC(=O)NC2CCCCC2)cc1-c1ccccc1` [PL#59] the IC50 (FAAH; [2]) was 50 nM.
With `O=C(NC1CCCCC1)Oc1cccc(-c2cccc(O)c2)c1` [Compound 3u] the IC50 (FAAH; IC50 (nM) ± S.E.M.) was 8.65 ± 0.1 nM and the IC50 (FAAH; pIC50 obsd) was 8.71 nM.
`O=C(NC1CCCCC1)Oc1cccc(-c2cccc([N+](=O)[O-])c2)c1` [Compound 3q] showed an IC50 (FAAH; [3]) of 49.6 ± 2 nM and an IC50 (FAAH; [4]) of 50.1 nM.
With `Cc1cccc(NC(=O)OC2CCCCC2)c1` [PL#57] the IC50 (FAAH; [2]) was 800 nM.
